Source: US20200339604A1, “PYRAZOLOPYRIMIDINE COMPOUNDS AS JAK INHIBITORS” (Genentech, Inc., priority 2018, published 2020)
Read-outs that look alike come from different tables or passages of the source.

Key:
[1] = biological target: T1, isolated recombinant JAK1 kinase domain (Homo sapiens, UniProt P23458); assay: JAK enzyme assay, JAK1 kinase domain (Caliper LabChip); type: biochemical; conditions: 1.5 nM JAK1, ATP 25 μM, Morrison tight binding model
T1 construct: isolated recombinant JAK1 and JAK2 kinase domain
T1 sequence (P23458 875-1153 limits assumed): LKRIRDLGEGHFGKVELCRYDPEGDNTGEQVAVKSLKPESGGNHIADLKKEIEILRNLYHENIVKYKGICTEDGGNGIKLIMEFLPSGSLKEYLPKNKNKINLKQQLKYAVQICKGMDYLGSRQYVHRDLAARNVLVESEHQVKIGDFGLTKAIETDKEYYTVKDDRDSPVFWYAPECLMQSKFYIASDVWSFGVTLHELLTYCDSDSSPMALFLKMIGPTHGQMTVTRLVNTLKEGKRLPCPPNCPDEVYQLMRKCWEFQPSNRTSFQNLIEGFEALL
Protocol: (§1) JAK Enzyme Assays were Carried Out as Follows:
(§2) The activity of the isolated recombinant JAK1 and JAK2 kinase domain was measured by monitoring phosphorylation of a peptide derived from JAK3 ([…] fluorescently labeled on the N-terminus with 5-carboxyfluorescein) using the Caliper LabChip® technology (Caliper Life Sciences, Hopkinton, Mass.). To determine inhibition constants (K), compounds were diluted serially in DMSO and added to 50 μL kinase reactions containing purified enzyme (1.5 nM JAK1, or 0.2 nM JAK2), 100 mM HEPES buffer (pH 7.2), 0.015% Brij-35, 1.5 μM peptide substrate, ATP (25 μM), 10 mM MgCl2, 4 mM DTT at a final DMSO concentration of 2%.
(§3) Reactions were incubated at 22° C. in 384-well polypropylene microtiter plates for 30 minutes and then stopped by addition of 25 µL of an EDTA containing solution (100 mM HEPES buffer (pH 7.2), 0.015% Brij-35, 150 mM EDTA), resulting in a final EDTA concentration of 50 mM. After termination of the kinase reaction, the proportion of phosphorylated product was determined as a fraction of total peptide substrate using the Caliper LabChip® 3000 according to the manufacturer's specifications. K values were then determined using the Morrison tight binding model (Morrison, J. F., Biochim. Biophys. Acta. 185:269-296 (1969); William, J. W. and Morrison, J. F., Meth. Enzymol., 63:437-467 (1979)) modified for ATP-competitive inhibition [Ki=Ki, app/(1+[ATP]/Km,app)].

[2] = biological target: T2, isolated recombinant JAK2 kinase domain (Homo sapiens, UniProt O60674); assay: JAK enzyme assay, JAK2 kinase domain (Caliper LabChip); type: biochemical; conditions: 0.2 nM JAK2, ATP 25 μM, Morrison tight binding model
T2 construct: isolated recombinant JAK1 and JAK2 kinase domain
T2 sequence (O60674 849-1124 limits assumed): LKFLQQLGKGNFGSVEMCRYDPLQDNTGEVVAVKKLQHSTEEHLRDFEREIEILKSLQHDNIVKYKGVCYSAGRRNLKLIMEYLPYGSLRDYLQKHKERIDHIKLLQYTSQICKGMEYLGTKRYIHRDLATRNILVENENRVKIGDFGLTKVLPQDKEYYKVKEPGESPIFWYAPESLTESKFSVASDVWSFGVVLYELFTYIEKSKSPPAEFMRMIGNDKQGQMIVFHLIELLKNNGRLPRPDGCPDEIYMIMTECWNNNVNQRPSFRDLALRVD
Protocol: as §1, §2, §3

[3] = test system: JAK1-dependent STAT6 phosphorylation downstream of IL-13 stimulation, BEAS-2B human bronchial epithelial cells; assay: JAK1 pathway assay in cell lines: IL-13 stimulated STAT6 phosphorylation in BEAS-2B cells (MSD); type: cell-based; conditions: IL-13 stimulation 15 min at EC90, read-out: IL-13 p-STAT6 BEAS-2B IC50
Protocol: JAK1 Pathway Assay in Cell Lines was Carried Out as Follows:
Inhibitor potency (EC50) was determined in cell-based assays designed to measure JAK1 dependent STAT phosphorylation. As noted above, inhibition of IL-4, IL-13, and IL-9 signaling by blocking the Jak/Stat signaling pathway can alleviate asthmatic symptoms in pre-clinical lung inflammation models (Mathew et al., 2001, J Exp Med 193(9): 1087-1096; Kudlacz et. al., 2008, Eur J. Pharmacol 582(1-3): 154-161).
In one assay approach, TF-1 human erythroleukemia cells obtained from the American Type Culture Collection (ATCC; Manassas, Va.) were used to measure JAK1-dependent STAT6 phosphorylation downstream of IL-13 stimulation. Prior to use in the assays, TF-1 cells were starved of GM-CSF overnight in OptiMEM medium (Life Technologies, Grand Island, N.Y.) supplemented with 0.5% charcoal/dextran stripped fetal bovine serum (FBS), 0.1 mM non-essential amino acids (NEAA), and 1 mM sodium pyruvate. The assays were run in 384-well plates in serum-free OptiMEM medium using 300,000 cells per well. In a second assay approach, BEAS-2B human bronchial epithelial cells obtained from ATCC were plated at 100,000 cells per well of a 96-well plate one day prior to the experiment. The BEAS-2B assay was run in complete growth medium (bronchial epithelial basal medium plus bulletkit; Lonza; Basel, Switzerland).
Test compounds were serially diluted 1:2 in DMSO and then diluted 1:50 in medium just before use. Diluted compounds were added to the cells, for a final DMSO concentration of […], and incubated for 30 m (for the TF-1 assay) or […] (for the BEAS-2B assay) at 37° C. Then, cells were stimulated with human recombinant cytokine at their respective EC90 concentrations, as previously determined for each individual lot. Cells were stimulated with IL-13 (R&D Systems, Minneapolis, Minn.) for 15 min at 37° C. The TF-1 cell reactions were stopped by the direct addition of 10× lysis buffer (Cell Signaling Technologies, Danvers, Mass.), whereas the BEAS-2B cell incubations were halted by the removal of medium and addition of 1× lysis buffer. The resultant samples were frozen in the plates at −80° C. Compound mediated inhibition of STAT6 phosphorylation was measured in the cell lysates using MesoScale Discovery (MSD) technology (Gaithersburg, Md.).

Structure (SMILES)	Ki [1]	Ki [2]	IC50 ([3]; Homo sapiens, BEAS-2B, […])	IC50 [3]
CN1CCC(n2cc(NC(=O)c3cnn4cccnc34)c(-c3cc4c(cc3OC(F)F)NCCO4)n2)C1=O (single isomer, unassigned) [Example 10, N-[3-[6-(difluoromethoxy)-3,4-dihydro-2H-1,4-benzoxazin-7-yl]-1-(1-methyl-2-oxo-pyrrolidin-3-yl)pyrazol-4-yl]pyrazolo[1,5-a]pyrimidine-3-carboxamide]	0.37 nM	0.58 nM	190 nM	–
CN1CCN(C(=O)CN2CCC(n3cc(NC(=O)c4cnn5cccnc45)c(-c4cc(Cl)ccc4OC(F)F)n3)C2=O)CC1 (single isomer, unassigned) [Example 17, N-[3-[5-chloro-2-(difluoromethoxy)phenyl]-1-[1-[2-(4-methylpiperazin-1-yl)-2-oxo-ethyl]-2-oxo-pyrrolidin-3-yl]pyrazol-4-yl]pyrazolo[1,5-a]pyrimidine-3-carboxamide]	2.6 nM	1.5 nM	–	300 nM
O=C(Nc1cn(C2CCN(C3COC3)C2=O)nc1-c1cc(Cl)ccc1OC(F)F)c1cnn2cccnc12 (single isomer, unassigned) [Example 24, N-[3-[5-chloro-2-(difluoromethoxy)phenyl]-1-[1-(oxetan-3-yl)-2-oxo-pyrrolidin-3-yl]pyrazol-4-yl]pyrazolo[1,5-a]pyrimidine-3-carboxamide]	3.9 nM	0.98 nM	–	57 nM
O=C(Nc1cn(C2CCNC2=O)nc1-c1cc(Cl)ccc1OC(F)F)c1cnn2cccnc12 (single isomer, unassigned) [Example 5, N-[3-[5-chloro-2-(difluoromethoxy)phenyl]-1-(2-oxopyrrolidin-3-yl)pyrazol-4-yl]pyrazolo[1,5-a]pyrimidine-3-carboxamide]	1.8 nM	0.48 nM	40 nM	–
CN1CCC(n2cc(NC(=O)c3cnn4cccnc34)c(-c3cc(SC(F)F)ccc3OC(F)F)n2)C1=O (single isomer, unassigned) [Example 18, N-[3-[2-(difluoromethoxy)-5-(difluoromethyl-sulfanyl)phenyl]-1-(1-methyl-2-oxo-pyrrolidin-3-yl)pyrazol-4-yl]pyrazolo[1,5-a]pyrimidine-3-carboxamide]	0.28 nM	0.39 nM	–	15 nM
O=C(Nc1cn(C2CCOC2=O)nc1-c1cc(Cl)ccc1OC(F)F)c1cnn2cccnc12 (single isomer, unassigned) [Example 27, N-[3-[5-chloro-2-(difluoromethoxy)phenyl]-1-(2-oxotetrahydrofuran-3-yl)pyrazol-4-yl]pyrazolo[1,5-a]pyrimidine-3-carboxamide]	0.77 nM	0.5 nM	–	24 nM
CN1CCCC(n2cc(NC(=O)c3cnn4cccnc34)c(-c3cc(Cl)ccc3OC(F)F)n2)C1=O (single isomer, unassigned) [Example 20, N-[3-[5-chloro-2-(difluoromethoxy)phenyl]-1-(1-methyl-2-oxo-3-piperidyl)pyrazol-4-yl]pyrazolo[1,5-a]pyrimidine-3-carboxamide]	0.48 nM	1.5 nM	–	24 nM
Cn1[nH]cc(-n2cc(NC(=O)c3cnn4cccnc34)c(-c3cc(Cl)ccc3OC(F)F)n2)c1=O [Example 26]	1.4 nM	0.14 nM	280 nM	–
O=C(Nc1cn(C2CCOC2=O)nc1-c1cc(Cl)ccc1OC(F)F)c1cnn2cccnc12 (racemic) [Example 25, N-[3-[5-chloro-2-(difluoromethoxy)phenyl]-1-(2-oxotetrahydrofuran-3-yl)pyrazol-4-yl]pyrazolo[1,5-a]pyrimidine-3-carboxamide; formic acid]	0.37 nM	0.21 nM	19 nM	–
CN1CCCC(n2cc(NC(=O)c3cnn4cccnc34)c(-c3cc(Cl)ccc3OC(F)F)n2)C1=O (single isomer, unassigned) [Example 21, N-[3-[5-chloro-2-(difluoromethoxy)phenyl]-1-(1-methyl-2-oxo-3-piperidyl)pyrazol-4-yl]pyrazolo[1,5-a]pyrimidine-3-carboxamide]	4.1 nM	2.1 nM	–	74 nM

Continued, in another order:

Ki [1]	Ki [2]	Structure (SMILES)	IC50 ([3]; Homo sapiens, BEAS-2B, […])	IC50 [3]
0.4 nM	0.23 nM	CS(=O)(=O)c1ccc(OC(F)F)c(-c2nn(C3CCOC3=O)cc2NC(=O)c2cnn3cccnc23)c1 (single isomer, unassigned) [Example 41, N-[3-[2-(difluoromethoxy)-5-methylsulfonyl-phenyl]-1-(2-oxotetrahydrofuran-3-yl)pyrazol-4-yl] pyrazolo[1,5-a]pyrimidine-3-carboxamide]	–	99 nM
0.3 nM	0.15 nM	CSc1ccc(OC(F)F)c(-c2nn(C3CCOC3=O)cc2NC(=O)c2cnn3cccnc23)c1 (single isomer, unassigned) [Example 29, N-[3-[2-(difluoromethoxy)-5-methylsulfanyl-phenyl]-1-(2-oxotetrahydrofuran-3-yl)pyrazol-4-yl]pyrazolo[1,5-a]pyrimidine-3-carboxamide]	9.2 nM	–
0.35 nM	0.2 nM	O=C(Nc1cn(C2CCOC2=O)nc1-c1cc(Cl)ccc1OC(F)F)c1cnn2cccnc12 (single isomer, unassigned) [Example 28, N-[3-[5-chloro-2-(difluoromethoxy)phenyl]-1-(2-oxotetrahydrofuran-3-yl)pyrazol-4-yl]pyrazolo[1,5-a]pyrimidine-3-carboxamide]	–	11 nM
0.65 nM	0.4 nM	O=C(Nc1cn(C2CCOC2=O)nc1-c1cc(OC(F)F)ccc1OC(F)F)c1cnn2cccnc12 (single isomer, unassigned) [Example 36, N-[3-[2,5-bis(difluoromethoxy)phenyl]-1-(2-oxotetrahydrofuran-3-yl)pyrazol-4-yl]pyrazolo[1,5-a]pyrimidine-3-carboxamide]	18 nM	–
1.1 nM	0.62 nM	CS(=O)(=O)c1ccc(OC(F)F)c(-c2nn(C3CCOC3=O)cc2NC(=O)c2cnn3cccnc23)c1 (single isomer, unassigned) [Example 40, N-[3-[2-(difluoromethoxy)-5-methylsulfonyl-phenyl]-1-(2-oxotetrahydrofuran-3-yl)pyrazol-4-yl]pyrazolo[1,5-a]pyrimidine-3-carboxamide]	120 nM	–
